ChEMBL document CHEMBL2396590, “Inhibition of HIV-1 integrase dimerization and activity with crosslinked interfacial peptides” (Bioorg Med Chem, 2013)
The source made the active and inactive calls. The rule behind the calls is not given here. Starred links: 1 amine or outer side, 2 acyl side, 3 side chain; linkers in the order of their positions; H or OH if unused. Non-standard residues stand in square brackets, D forms with d. Residues, ends and D or L forms follow the SMILES beside them. X1 = O=C(CN1CCN([*:1])CC1)[*:2]; X4 = O=C(CCC(=O)[*:2])CN[*:1]; 12Ado = NCCCCCCCCCCCC(=O)O; Ahx = NCCCCCC(=O)O

Tests used:
[1] = tested on: Human immunodeficiency virus type 1 integrase (Human immunodeficiency virus 1), Q7ZJM1 [F185K,C280S]; assay: Inhibition of HIV1 integrase F185K/C280S double mutant dimerization expressed in Escherichia coli BL21 (DE3) at 100 fold excess compound concentration after 1 hr by PAGE analysis
[2] = tested on: Human immunodeficiency virus type 1 integrase (Human immunodeficiency virus 1), Q7ZJM1 [F185K,C280S]; assay: Inhibition of HIV1 integrase F185K/C280S double mutant dimerization expressed in Escherichia coli BL21 (DE3) at 110 uM after 1 hr by PAGE analysis
[3] = molecular target: Human immunodeficiency virus type 1 integrase (Human immunodeficiency virus 1, UniProt Q7ZJM1, C280S/F185K); assay: Inhibition of HIV1 3'-processing activity of integrase F185K/C280S double mutant expressed in Escherichia coli BL21 (DE3)

Compound | inhibition [1] | inhibition [2] | IC50 [3] [nM]
CC[C@H](C)[C@H](NC(=O)[C@H](CC(=O)O)NC(=O)[C@@H](NC(=O)[C@H](C)NC(=O)[C@@H](NC(=O)[C@@H](NC(=O)[C@H](CC(=O)O)NC(=O)[C@@H](NC(=O)[C@@H](NC(=O)[C@H](CCCNC(=N)N)NC(=O)[C@H](CCC(=O)O)NC(=O)CNC(=O)[C@H](C)NC(=O)CCCCCNC(=O)[C@H](CCCNC(=N)N)NC(=O)[C@H](CCCCN)NC(=O)[C@H](Cc1ccccc1)NC(=O)[C@H](CC(N)=O)NC(=O)[C@H](Cc1cnc[nH]1)NC(=O)[C@@H](NC(=O)[C@H](Cc1ccccc1)NC(=O)[C@@H](NC(=O)[C@H](C)NC(=O)[C@H](CCSC)NC(=O)[C@H](CCC(N)=O)NC(=O)[C@@H](NC(=O)[C@H](C)NC(=O)[C@@H](NC(=O)[C@H](CCCCN)NC(=O)[C@H](CC(C)C)NC(=O)[C@@H](N)Cc1cnc[nH]1)[C@@H](C)O)C(C)C)C(C)C)[C@@H](C)CC)[C@@H](C)CC)C(C)C)[C@@H](C)CC)[C@@H](C)CC)[C@@H](C)O)C(=O)N[C@@H](CCC(N)=O)C(N)=O (H-HLKTAVQMAVFIHNFKR[Ahx]AGERIVDIIATDIQ-NH2) | inactive | inactive | 1500
CC[C@H](C)[C@H](NC(=O)[C@H](CC(=O)O)NC(=O)[C@@H](NC(=O)[C@H](C)NC(=O)[C@@H](NC(=O)[C@@H](NC(=O)[C@H](CC(=O)O)NC(=O)[C@@H](NC(=O)[C@@H](NC(=O)[C@H](CCCNC(=N)N)NC(=O)[C@H](CCC(=O)O)NC(=O)CNC(=O)[C@H](C)NC(=O)CN1CCN(C(=O)[C@H](CCCNC(=N)N)NC(=O)[C@H](CCCCN)NC(=O)[C@H](Cc2ccccc2)NC(=O)[C@H](CC(N)=O)NC(=O)[C@H](Cc2cnc[nH]2)NC(=O)[C@@H](NC(=O)[C@H](Cc2ccccc2)NC(=O)[C@@H](NC(=O)[C@H](C)NC(=O)[C@H](CCSC)NC(=O)[C@H](CCC(N)=O)NC(=O)[C@@H](NC(=O)[C@H](C)NC(=O)[C@@H](NC(=O)[C@H](CCCCN)NC(=O)[C@H](CC(C)C)NC(=O)[C@@H](N)Cc2cnc[nH]2)[C@@H](C)O)C(C)C)C(C)C)[C@@H](C)CC)CC1)[C@@H](C)CC)C(C)C)[C@@H](C)CC)[C@@H](C)CC)[C@@H](C)O)C(=O)N[C@@H](CCC(N)=O)C(N)=O (H-HLKTAVQMAVFIHNFKR[X1]AGERIVDIIATDIQ-NH2) |  | Active | 460
CC[C@H](C)[C@H](NC(=O)[C@H](CC(=O)O)NC(=O)[C@@H](NC(=O)[C@H](C)NC(=O)[C@@H](NC(=O)[C@@H](NC(=O)[C@H](CC(=O)O)NC(=O)[C@@H](NC(=O)[C@@H](NC(=O)[C@H](CCCNC(=N)N)NC(=O)[C@H](CCC(=O)O)NC(=O)CNC(=O)[C@H](C)NC(=O)CCC(=O)CNC(=O)[C@H](CCCNC(=N)N)NC(=O)[C@H](CCCCN)NC(=O)[C@H](Cc1ccccc1)NC(=O)[C@H](CC(N)=O)NC(=O)[C@H](Cc1cnc[nH]1)NC(=O)[C@@H](NC(=O)[C@H](Cc1ccccc1)NC(=O)[C@@H](NC(=O)[C@H](C)NC(=O)[C@H](CCSC)NC(=O)[C@H](CCC(N)=O)NC(=O)[C@@H](NC(=O)[C@H](C)NC(=O)[C@@H](NC(=O)[C@H](CCCCN)NC(=O)[C@H](CC(C)C)NC(=O)[C@@H](N)Cc1cnc[nH]1)[C@@H](C)O)C(C)C)C(C)C)[C@@H](C)CC)[C@@H](C)CC)C(C)C)[C@@H](C)CC)[C@@H](C)CC)[C@@H](C)O)C(=O)N[C@@H](CCC(N)=O)C(N)=O (H-HLKTAVQMAVFIHNFKR[X4]AGERIVDIIATDIQ-NH2) |  | Active | 430
CC[C@H](C)[C@H](NC(=O)[C@H](CC(=O)O)NC(=O)[C@@H](NC(=O)[C@H](C)NC(=O)[C@@H](NC(=O)[C@@H](NC(=O)[C@H](CC(=O)O)NC(=O)[C@@H](NC(=O)[C@@H](NC(=O)[C@H](CCCNC(=N)N)NC(=O)[C@H](CCC(=O)O)NC(=O)CNC(=O)[C@H](C)NC(=O)CCCCCCCCCCCNC(=O)[C@H](CCCNC(=N)N)NC(=O)[C@H](CCCCN)NC(=O)[C@H](Cc1ccccc1)NC(=O)[C@H](CC(N)=O)NC(=O)[C@H](Cc1cnc[nH]1)NC(=O)[C@@H](NC(=O)[C@H](Cc1ccccc1)NC(=O)[C@@H](NC(=O)[C@H](C)NC(=O)[C@H](CCSC)NC(=O)[C@H](CCC(N)=O)NC(=O)[C@@H](NC(=O)[C@H](C)NC(=O)[C@@H](NC(=O)[C@H](CCCCN)NC(=O)[C@H](CC(C)C)NC(=O)[C@@H](N)Cc1cnc[nH]1)[C@@H](C)O)C(C)C)C(C)C)[C@@H](C)CC)[C@@H](C)CC)C(C)C)[C@@H](C)CC)[C@@H](C)CC)[C@@H](C)O)C(=O)N[C@@H](CCC(N)=O)C(N)=O (H-HLKTAVQMAVFIHNFKR[12Ado]AGERIVDIIATDIQ-NH2) |  | Active | 1300
